Legend:
[1] = test system: 22AG (DNA, G4) AGGGTTAGGGTTAGGGTTAGGG; experiment: photometric titration (Specfit); conditions: K+ (25 mM K2HPO4, 70 mM KCl), K-phosphate pH 7.0, DMSO cosolvent (10% in legend, 5% in methods)
[2] = test system: Fa2T (DNA, G4) ACAGGGGTGTGGGGACAGGGGTGTGGGG; experiment: FRET melting; conditions: K+ 10 mM (KCl), Na+ 10 mM (cacodylate), Li+ 90 µM [sic]; Na-cacodylate pH 7.2; DNA 0.2 µM, LDR 5 (1 µM ligand); error ± 0.5 °C
[3] = test system: F21T (DNA, G4) GGGTTAGGGTTAGGGTTAGGG; experiment: FRET melting; conditions: K+ 10 mM (KCl), Na+ 10 mM (cacodylate), Li+ 90 µM [sic]; Na-cacodylate pH 7.2; DNA 0.2 µM, LDR 5 (1 µM ligand); error ± 0.5 °C
[4] = test system: a2 (DNA, G4) ACAGGGGTGTGGGGACAGGGGTGTGGGG; experiment: photometric titration (Specfit); conditions: K+ (25 mM K2HPO4, 70 mM KCl), K-phosphate pH 7.0, DMSO cosolvent (10% in legend, 5% in methods)
[5] = test system: FkitT (DNA, G4) AGGGAGGGCGCTGGGAGGAGGG; experiment: FRET melting; conditions: K+ 10 mM (KCl), Na+ 10 mM (cacodylate), Li+ 90 µM [sic]; Na-cacodylate pH 7.2; DNA 0.2 µM, LDR 5 (1 µM ligand); error ± 0.5 °C
[6] = test system: FkrasT (DNA, G4) AGGGCGGTGTGGGAAGAGGA; experiment: FRET melting; conditions: K+ 10 mM (KCl), Na+ 10 mM (cacodylate), Li+ 90 µM [sic]; Na-cacodylate pH 7.2; DNA 0.2 µM, LDR 5 (1 µM ligand); error ± 0.5 °C
[7] = test system: FmycT (DNA, G4) TGAGGGTGGGTAGGGTGGGTAA; experiment: FRET melting; conditions: K+ 10 mM (KCl), Na+ 10 mM (cacodylate), Li+ 90 µM [sic]; Na-cacodylate pH 7.2; DNA 0.2 µM, LDR 5 (1 µM ligand); error ± 0.5 °C

Row | SMILES | log Kb [1] | log Kb ([1]; overall 2:1 constant) | ΔTm [2] [°C] | ΔTm [3] [°C] | log Kb ([4]; overall 2:1 constant) | log Kb [4] | ΔTm [5] [°C] | ΔTm [6] [°C] | ΔTm [7] [°C]
1 | COc1ccc2cc3[n+](cc2c1OCCCCCn1cc(Cn2cnc4c(N)ncnc42)nn1)CCc1cc2c(cc1-3)OCO2 | 5.09 ± 0.13 log (K in M^-1) | 10.8 ± 0.1 log (K in M^-2) | 0.0 | 9.9 | 11.1 ± 0.2 log (K in M^-2) | – | – | – | –
2 | COc1ccc2cc3[n+](cc2c1OCCCCCCn1cc(Cn2cnc4c(N)ncnc42)nn1)CCc1cc2c(cc1-3)OCO2 | – | 10.7 ± 0.1 log (K in M^-2) | 1.1 | 12.9 | 11.1 ± 0.1 log (K in M^-2) | – | 2.7 | 10.1 | 5.0

Now from value to molecule:

Row | log Kb [1] | log Kb ([1]; overall 2:1 constant) | ΔTm [2] [°C] | ΔTm [3] [°C] | log Kb ([4]; overall 2:1 constant) | log Kb [4] | ΔTm [5] [°C] | ΔTm [6] [°C] | ΔTm [7] [°C] | SMILES
3 | 5.23 ± 0.09 log (K in M^-1) | 10.7 ± 0.1 log (K in M^-2) | −0.1 | 6.4 | 10.6 ± 0.3 log (K in M^-2) | – | – | – | – | COc1ccc2cc3[n+](cc2c1OCCCCn1cc(Cn2cnc4c(N)ncnc42)nn1)CCc1cc2c(cc1-3)OCO2
4 | 5.64 ± 0.15 log (K in M^-1) | 10.8 ± 0.2 log (K in M^-2) | – | 6.2 | 10.6 ± 0.2 log (K in M^-2) | 5.39 ± 0.14 log (K in M^-1) | – | – | – | COc1ccc2cc3[n+](cc2c1OCCCn1cc(Cn2cnc4c(N)ncnc42)nn1)CCc1cc2c(cc1-3)OCO2
5 | 5.89 ± 0.07 log (K in M^-1) | – | −0.5 | 3.4 | 10.3 ± 0.1 log (K in M^-2) | 5.27 ± 0.08 log (K in M^-1) | – | – | – | COc1ccc2cc3[n+](cc2c1OCCn1cc(Cn2cnc4c(N)ncnc42)nn1)CCc1cc2c(cc1-3)OCO2
